Assay results reported in paper PMC8550792, “Evolution of kinase polypharmacology across HSP90 drug discovery” (Cell Chemical Biology, 2021).

How the values were obtained:
Assay in all cases: biochemical
Type in all cases: biochemical
382 unique human kinases [1] = biological target: T1, 382 unique human kinases (Homo sapiens, UniProt O95382); details: MEKK6, 10 uM; for remaining activity at 10 µM: read-out: % Enzyme Activity (relative to DMSO controls)
T1 construct: purchased Reaction Biology (HotSpot contract assay)
T1 sequence (O95382 1-1288): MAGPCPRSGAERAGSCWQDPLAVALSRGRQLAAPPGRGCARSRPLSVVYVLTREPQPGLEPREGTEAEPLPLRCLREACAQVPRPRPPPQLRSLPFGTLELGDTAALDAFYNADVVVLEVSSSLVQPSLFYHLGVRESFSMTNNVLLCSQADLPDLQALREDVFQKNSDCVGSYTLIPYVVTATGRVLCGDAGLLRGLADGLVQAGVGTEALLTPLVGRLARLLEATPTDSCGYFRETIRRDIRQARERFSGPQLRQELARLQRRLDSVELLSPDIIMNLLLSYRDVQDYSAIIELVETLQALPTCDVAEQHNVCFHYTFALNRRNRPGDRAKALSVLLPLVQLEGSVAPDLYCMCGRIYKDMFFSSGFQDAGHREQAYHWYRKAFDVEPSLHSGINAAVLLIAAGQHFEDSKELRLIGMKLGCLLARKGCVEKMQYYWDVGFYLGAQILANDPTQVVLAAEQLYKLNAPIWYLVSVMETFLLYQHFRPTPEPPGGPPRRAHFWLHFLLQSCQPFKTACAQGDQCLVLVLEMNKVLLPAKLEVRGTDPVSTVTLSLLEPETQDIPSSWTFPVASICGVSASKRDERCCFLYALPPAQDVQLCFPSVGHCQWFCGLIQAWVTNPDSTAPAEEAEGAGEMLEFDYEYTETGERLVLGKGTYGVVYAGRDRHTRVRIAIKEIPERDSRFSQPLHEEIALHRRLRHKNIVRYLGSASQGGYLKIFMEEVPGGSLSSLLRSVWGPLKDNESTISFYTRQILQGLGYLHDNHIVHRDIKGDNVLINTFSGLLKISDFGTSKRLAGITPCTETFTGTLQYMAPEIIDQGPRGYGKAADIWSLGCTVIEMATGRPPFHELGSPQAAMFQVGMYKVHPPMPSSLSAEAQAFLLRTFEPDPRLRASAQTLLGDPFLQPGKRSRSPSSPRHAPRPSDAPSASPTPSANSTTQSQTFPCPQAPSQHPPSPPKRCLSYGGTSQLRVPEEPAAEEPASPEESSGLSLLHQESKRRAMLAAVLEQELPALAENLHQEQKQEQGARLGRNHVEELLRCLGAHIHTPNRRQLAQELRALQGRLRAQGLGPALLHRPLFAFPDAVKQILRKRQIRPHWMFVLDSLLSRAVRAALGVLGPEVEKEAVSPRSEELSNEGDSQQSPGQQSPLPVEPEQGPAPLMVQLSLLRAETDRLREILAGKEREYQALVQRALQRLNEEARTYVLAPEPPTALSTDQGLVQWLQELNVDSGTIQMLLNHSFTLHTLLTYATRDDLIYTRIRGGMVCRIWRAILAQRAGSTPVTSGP

382 unique human kinases [2] = biological target: T2, 382 unique human kinases (Homo sapiens, UniProt Q9UBE8); details: NLK, 10 uM; for remaining activity at 10 µM: read-out: % Enzyme Activity (relative to DMSO controls)
T2 construct: purchased Reaction Biology (HotSpot contract assay)
T2 sequence (Q9UBE8 1-527): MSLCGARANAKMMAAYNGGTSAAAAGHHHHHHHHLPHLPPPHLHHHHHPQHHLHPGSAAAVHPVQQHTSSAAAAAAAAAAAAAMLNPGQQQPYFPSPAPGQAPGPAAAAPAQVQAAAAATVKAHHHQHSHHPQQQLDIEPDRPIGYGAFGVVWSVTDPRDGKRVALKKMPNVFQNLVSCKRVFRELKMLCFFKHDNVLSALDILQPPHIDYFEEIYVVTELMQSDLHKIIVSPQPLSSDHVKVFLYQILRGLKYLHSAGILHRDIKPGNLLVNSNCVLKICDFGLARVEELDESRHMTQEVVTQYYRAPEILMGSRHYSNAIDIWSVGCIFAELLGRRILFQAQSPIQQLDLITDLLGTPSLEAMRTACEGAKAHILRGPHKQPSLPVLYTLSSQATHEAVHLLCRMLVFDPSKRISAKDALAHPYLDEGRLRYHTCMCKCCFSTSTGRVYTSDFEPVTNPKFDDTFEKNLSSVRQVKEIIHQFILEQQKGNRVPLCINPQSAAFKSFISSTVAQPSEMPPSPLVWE

382 unique human kinases [3] = biological target: T3, 382 unique human kinases (Homo sapiens, UniProt P30530); details: kinase AXL, compound 10 uM; for remaining activity at 10 µM: read-out: % Enzyme Activity (relative to DMSO controls)
T3 construct: purchased Reaction Biology (HotSpot contract assay)
T3 sequence (P30530 26-894): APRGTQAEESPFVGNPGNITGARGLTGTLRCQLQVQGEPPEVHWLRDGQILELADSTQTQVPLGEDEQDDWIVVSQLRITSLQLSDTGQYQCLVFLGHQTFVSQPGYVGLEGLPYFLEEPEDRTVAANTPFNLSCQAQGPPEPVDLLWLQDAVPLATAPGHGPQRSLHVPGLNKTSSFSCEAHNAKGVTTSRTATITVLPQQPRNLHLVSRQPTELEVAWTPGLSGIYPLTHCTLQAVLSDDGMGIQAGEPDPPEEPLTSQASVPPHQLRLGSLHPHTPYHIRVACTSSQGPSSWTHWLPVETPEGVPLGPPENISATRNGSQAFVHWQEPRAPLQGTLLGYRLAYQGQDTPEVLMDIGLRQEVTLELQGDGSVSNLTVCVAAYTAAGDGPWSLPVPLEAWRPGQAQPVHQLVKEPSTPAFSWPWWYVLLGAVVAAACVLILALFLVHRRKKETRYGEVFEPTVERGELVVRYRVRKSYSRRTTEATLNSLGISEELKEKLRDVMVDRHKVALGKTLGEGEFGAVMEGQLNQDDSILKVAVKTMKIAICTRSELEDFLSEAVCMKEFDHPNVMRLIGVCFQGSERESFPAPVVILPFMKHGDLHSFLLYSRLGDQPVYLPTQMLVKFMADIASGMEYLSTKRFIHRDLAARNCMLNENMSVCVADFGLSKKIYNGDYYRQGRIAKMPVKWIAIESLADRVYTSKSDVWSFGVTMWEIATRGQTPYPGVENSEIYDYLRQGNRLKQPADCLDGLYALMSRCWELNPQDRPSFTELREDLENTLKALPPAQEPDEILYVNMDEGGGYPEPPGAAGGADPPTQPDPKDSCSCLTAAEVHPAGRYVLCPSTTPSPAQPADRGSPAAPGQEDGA

382 unique human kinases [4] = biological target: T4, 382 unique human kinases (Homo sapiens, UniProt P21802, K659N); details: FGFR2 (K659N), 10 uM; for remaining activity at 10 µM: read-out: % Enzyme Activity (relative to DMSO controls)
T4 construct: purchased Reaction Biology (HotSpot contract assay)

382 unique human kinases [5] = biological target: T5, 382 unique human kinases (Homo sapiens, UniProt O96013); details: PAK4, compound at 10 uM, duplicate values; for remaining activity at 10 µM: read-out: % Enzyme Activity (relative to DMSO controls)
T5 construct: purchased Reaction Biology (HotSpot contract assay)

382 unique human kinases [6] = biological target: T6, 382 unique human kinases (Homo sapiens, UniProt Q9BYT3); details: kinase STK33, compound 10 uM; for remaining activity at 10 µM: read-out: % Enzyme Activity (relative to DMSO controls)
T6 construct: purchased Reaction Biology (HotSpot contract assay)
T6 sequence (Q9BYT3 whole entry): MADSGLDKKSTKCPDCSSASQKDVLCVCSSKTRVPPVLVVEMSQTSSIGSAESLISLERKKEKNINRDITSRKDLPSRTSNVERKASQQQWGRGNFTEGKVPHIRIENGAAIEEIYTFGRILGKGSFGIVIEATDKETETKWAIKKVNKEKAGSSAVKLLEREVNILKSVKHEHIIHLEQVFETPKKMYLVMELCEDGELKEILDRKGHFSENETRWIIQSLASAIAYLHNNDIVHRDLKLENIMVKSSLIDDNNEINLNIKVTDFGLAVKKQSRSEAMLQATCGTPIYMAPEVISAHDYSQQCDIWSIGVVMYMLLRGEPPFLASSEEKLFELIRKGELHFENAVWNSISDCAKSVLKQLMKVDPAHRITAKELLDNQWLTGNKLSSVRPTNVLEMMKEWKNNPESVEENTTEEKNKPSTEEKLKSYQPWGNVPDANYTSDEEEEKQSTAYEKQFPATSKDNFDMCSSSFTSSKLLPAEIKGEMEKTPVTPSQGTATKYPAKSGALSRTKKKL

T4 sequence (P21802 22-821 K659N): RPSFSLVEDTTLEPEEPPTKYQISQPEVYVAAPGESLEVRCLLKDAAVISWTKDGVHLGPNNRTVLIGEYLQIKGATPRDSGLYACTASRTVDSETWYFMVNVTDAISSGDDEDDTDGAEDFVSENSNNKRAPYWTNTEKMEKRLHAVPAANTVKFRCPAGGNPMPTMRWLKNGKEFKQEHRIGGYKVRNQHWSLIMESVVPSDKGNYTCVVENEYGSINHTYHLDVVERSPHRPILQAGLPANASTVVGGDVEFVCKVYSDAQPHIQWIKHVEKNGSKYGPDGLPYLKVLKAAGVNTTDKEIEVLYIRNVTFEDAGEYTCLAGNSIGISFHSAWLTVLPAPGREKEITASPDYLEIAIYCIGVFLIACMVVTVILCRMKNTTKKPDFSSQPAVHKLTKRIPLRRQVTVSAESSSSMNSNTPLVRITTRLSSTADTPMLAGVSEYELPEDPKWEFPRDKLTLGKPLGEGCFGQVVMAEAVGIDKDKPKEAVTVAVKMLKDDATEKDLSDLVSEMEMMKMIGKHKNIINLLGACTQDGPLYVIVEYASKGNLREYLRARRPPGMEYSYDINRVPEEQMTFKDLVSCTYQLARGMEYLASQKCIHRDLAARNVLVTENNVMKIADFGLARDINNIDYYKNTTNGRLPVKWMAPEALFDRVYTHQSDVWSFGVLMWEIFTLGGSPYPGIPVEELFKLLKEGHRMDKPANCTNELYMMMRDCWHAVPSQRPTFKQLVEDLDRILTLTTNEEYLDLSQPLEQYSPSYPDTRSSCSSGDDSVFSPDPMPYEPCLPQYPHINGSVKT
T5 sequence (O96013 whole entry): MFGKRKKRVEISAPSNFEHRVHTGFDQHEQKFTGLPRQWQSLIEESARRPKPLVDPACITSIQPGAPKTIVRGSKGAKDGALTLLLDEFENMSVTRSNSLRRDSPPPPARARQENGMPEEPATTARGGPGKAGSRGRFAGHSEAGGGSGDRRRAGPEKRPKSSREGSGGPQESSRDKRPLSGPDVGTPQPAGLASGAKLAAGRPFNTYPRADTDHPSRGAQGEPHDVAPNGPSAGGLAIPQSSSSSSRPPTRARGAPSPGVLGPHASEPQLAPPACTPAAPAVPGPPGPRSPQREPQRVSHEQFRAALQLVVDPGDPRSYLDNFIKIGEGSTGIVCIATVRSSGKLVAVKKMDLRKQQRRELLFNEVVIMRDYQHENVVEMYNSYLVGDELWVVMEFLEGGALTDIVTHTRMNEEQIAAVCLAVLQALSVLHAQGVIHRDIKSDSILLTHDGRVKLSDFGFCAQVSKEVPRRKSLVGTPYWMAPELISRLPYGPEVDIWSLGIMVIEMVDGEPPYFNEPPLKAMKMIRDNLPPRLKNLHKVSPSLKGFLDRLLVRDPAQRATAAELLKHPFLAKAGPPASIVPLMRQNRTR

With CCNC(=O)c1noc(-c2cc(C(C)C)c(O)cc2O)c1-c1ccc(CN2CCOCC2)cc1 [Luminespib] the “% Enzyme Activity (relative to DMSO controls)” value (382 unique human kinases [1]) was 94.49%, the remaining activity at 10 µM (382 unique human kinases [1]) was 96% and the “% Enzyme Activity (relative to DMSO controls)” value (382 unique human kinases [2]) was 91.72%. For the same compound, the remaining activity at 10 µM (382 unique human kinases [2]) was 92.5%.

CC(C)c1cc(-c2n[nH]c(=O)n2-c2ccc3c(ccn3C)c2)c(O)cc1O [Ganetespib (STA9090)] showed a remaining activity at 10 µM (382 unique human kinases [3]) of 84%, a remaining activity at 10 µM (382 unique human kinases [4]) of 70.6% and a remaining activity at 10 µM (382 unique human kinases [5]) of 129%. For the same compound, the remaining activity at 10 µM (382 unique human kinases [6]) was 81.4%.

With CCNC(=O)c1noc(-c2cc(C(C)C)c(O)cc2O)c1-c1ccc(CN2CCOCC2)cc1 [Luminespib (AUY-922)] the “% Enzyme Activity (relative to DMSO controls)” value (382 unique human kinases [3]) was 97.82%, the remaining activity at 10 µM (382 unique human kinases [3]) was 98.9% and the “% Enzyme Activity (relative to DMSO controls)” value (382 unique human kinases [4]) was 101.12%. For the same compound, the remaining activity at 10 µM (382 unique human kinases [4]) was 102%, the “% Enzyme Activity (relative to DMSO controls)” value (382 unique human kinases [5]) was 118.57% and the remaining activity at 10 µM (382 unique human kinases [5]) was 119%. For the same compound, the “% Enzyme Activity (relative to DMSO controls)” value (382 unique human kinases [6]) was 103.02% and the remaining activity at 10 µM (382 unique human kinases [6]) was 104%.

For CC(C)c1cc(-c2n[nH]c(=O)n2-c2ccc3c(ccn3C)c2)c(O)cc1O [Ganetespib], the remaining activity at 10 µM (382 unique human kinases [1]) was 94.2% and the remaining activity at 10 µM (382 unique human kinases [2]) was 94.8%.
